Reference: publication PMC6737244, “Cathelicidin Peptides Restrict Bacterial Growth via Membrane Perturbation and Induction of Reactive Oxygen Species” (mBio, 2019)
Ends that are not written are not given here.

What was measured:
P. aeruginosa biofilms = test: Established biofilm in flow cell, LIVE/DEAD staining; settings: 100 nM
E. faecalis = test: CellROX ROS production, imaging; assay type: cell-based, Enterococcus faecalis; settings: 500 nM, 2.5 μM CellROX
Text: The growth rate of the sodA mutant in the absence of peptide was lower than that of the wild type (WT), underscoring the importance of effectively controlling O2^− accumulation.

V. cholerae = test: CellROX ROS production, single-cell imaging; assay type: cell-based, Vibrio cholerae; settings: 100 nM, 2.5 μM CellROX
Text: The assortment of E. coli genes that were differentially expressed after peptide treatment led us to suspect that B22a induced oxidative stress. Oxidative stress is often transient and challenging to detect due to a suite of enzymes in bacterial cells that can rapidly reduce oxidative species. We monitored the real-time accumulation of ROS in single cells of V. cholerae in the presence of CellROX, a cell-permeable redox dye that reacts with O2^– and ^·OH ([30]). CellROX is nonfluorescent in the reduced state, but upon oxidation, it binds double-stranded DNA and fluoresces strongly. Images were captured at 15-s intervals over 40 min, twice the doubling time of V. cholerae under these conditions. […] The number of fluorescent cells increased following treatment with 25, 50, or 100 nM B22 or B22a (Fig. S4), and a fluorescence burst due to the oxidation of CellROX was observed within 15 s of B22 treatment (Fig. 7A, bottom). The signal intensity peaked over the next 30 s and then dissipated after about 1 min. The loss in fluorescence intensity was followed by an abrupt shortening in cell length, a dramatic decrease in cell contrast, and bleb formation roughly 45 s later.

Escherichia coli IU342 = test: MIC, broth microdilution; assay type: cell-based; settings: CAMHB, 16 to 18 h, at least three independent assays
Method: (§1) MICs were determined by using the broth microdilution method based on the general recommendations of the Clinical and Laboratory Standards Institute (CLSI). Bacteria were grown in CAMHB overnight. They were then diluted into fresh medium the following morning and grown to early log phase. The cultures were then diluted to approximately 5 × 10^5 CFU ml^−1, and 100 μl was added to sterile 96-well polypropylene microtiter plates (Corning, NY, USA) preloaded with twofold dilutions of antimicrobial peptides. […] All MIC assays were determined from at least three independent assays.

[1] = tested on: Escherichia coli J53 AzideR; assay type: cell-based; settings: CAMHB, 16 to 18 h, at least three independent assays
Method: as §1

Vibrio cholerae AC53 = assay type: cell-based; settings: CAMHB, 16 to 18 h, at least three independent assays
Method: as §1

Vibrio cholerae C6075 = assay type: cell-based; settings: CAMHB, 16 to 18 h, at least three independent assays
Method: as §1

[2] = tested on: Pseudomonas aeruginosa PAO1 oprD; assay type: cell-based; settings: CAMHB, 16 to 18 h, at least three independent assays
Method: as §1

E. cloacae = test: Single-cell division time, time-lapse phase-contrast microscopy; assay type: cell-based, Enterobacter cloacae; settings: 30 nM, first three generations
Method: To confirm that sublethal levels of cathelicidins affected the growth of Gram-negative bacteria, the division of single cells of E. coli and E. cloacae was monitored. Cells were seeded into microfluidic chambers and grown under continuous flow, and time-lapse phase-contrast microscopy was used to record the cell division time in the presence or absence of B22a.
Imaging of individual cells was conducted using the CellAsic microfluidic perfusion system (ONIX) with integrated temperature controller and B04A bacterial microfluidic plates (EMD Millipore, Billerica, MA). The CellAsic ONIX FG software (v 5.0.2.0) was used to control flow rate and deliver fresh medium with or without antimicrobial peptide (AMP). The chambers were loaded by perfusion of 50 μl of a 10^6 cells/ml bacterial suspension at 2 lb/in^2 for 15 s to prime the cells followed by 4 lb/in^2 for 15 s to trap the cells. The chamber was then rinsed at 1 lb/in^2 for 30 s followed by 5 lb/in^2 for 5 min. To quickly switch solutions, medium was perfused at 10 lb/in^2 for 10 s, and then flow was reduced to 2 lb/in^2 for the remainder of the imaging.

V. cholerae biofilms = test: Established biofilm in flow cell, LIVE/DEAD staining

Row | Substance | Drop in biofilm biomass (P. aeruginosa biofilms; 4-h period, continuous flow) [%] | Cell death in biofilm (spike) (P. aeruginosa biofilms; after 1 h) | CellROX oxidative signal (E. faecalis) | Time to fluorescence burst due to oxidation of CellROX (V. cholerae) [s] | MIC (Escherichia coli IU342) [µM] | MIC [1] [µM] | MIC (Vibrio cholerae AC53) [µM] | MIC (Vibrio cholerae C6075) [µM] | MIC [2] [µM] | Cell division time (E. cloacae) | Overall biofilm biomass (V. cholerae biofilms) | Cell death in biofilm (V. cholerae biofilms; at 6 h) [%]
1 | FRKKLKKLFKKLSPVIPLLKLG [B22] | 50 | > 50 | fluorescent burst | ≤ 15 |  |  |  |  |  |  |  | 
2 | FRKKLKKLFKKLSPVIPLLKLG-NH2 [B22a] |  |  |  |  | 2 | 2 | 4 | 4 | 2 | increased twofold | decreased the overall biomass by half | 50
